Data as given in patent publication US10364230B2, “Chromene-2 derivatives and use thereof in the treatment of fibrosis” (ALTAY THERAPEUTICS, INC., priority 2014, dated 2019).

Assays:
[1] = system: TGFbeta-induced secreted collagen synthesis in L929 cells; assay: TGFbeta-induced secreted collagen in L929 cells (anti-collagen type I ELISA); type: cell-based; details: 50 micromole CP1, 5 ng/ml Mouse TGFβ2, 72 hours, culture supernatant, FIG. 3
Description: (§1) The present invention is about novel compounds which may offer alternative treatment options against IPF, which believed to develop as a consequences of smoking, pollution, allergens, toxins and seen in people who are older than 50 years old. The compounds mentioned in this application have been generated from “6,7-dimethoxy 2H-chromen-one (1), which was identified from local medicinal plants during our screening studies. The anti-fibrotic activity of this compound (“6,7-dimethoxy 2H-chromen-one (I) against TGF beta-induced collagen synthesis using 1.929 cells has been identified. For this, in 96-well plates, 1.929 cells were cultured in DMEM supplemented with % 10 serum, 10 μg/ml ascorbic acid and 20 μM prolin until they reached to confluency. Confluent cells were treated with 50 micromole of our compound (named as CP1) dissolved in DMSO for 1 hour, then 5 ng/ml of Mouse TGFβ2 was added and cells were further incubated for 72 hours at incubator supplied with 5% CO2 and 80% humidity. At the end of this incubation one of the plate was used to determine cell viability by using MTT test, FIG. 2. The second 96-well plate was used to determine the level of total collagen. […] Absorbance of developed color was determined at 600 nm. […] In addition to total collagen, we also determined the level of “secreted collagen” by using ELISA. […]

[2] = system: TGFbeta-induced collagen synthesis in L929 cells; assay: TGFbeta-induced total collagen synthesis in L929 cells (sircol dye); type: cell-based; details: 50 micromole CP1 for 1 hour, then 5 ng/ml Mouse TGFβ2, 72 hours, FIG. 1
Description: as §1

COc1cc2ccc(=O)oc2cc1OC [CP1, 6,7-dimethoxy 2H-chromen-2-one]
effect on TGFβ-induced secreted collagen level [1]: significantly inhibits | TGFβ-induced collagen level in the presence of CP1, compared to control cells ([2]; TGFβ alone induced % 20): 10% | inhibition of TGFβ-induced collagen synthesis ([2]; total collagen, sircol, absorbance 600 nm): 50%
